Reference: ChEMBL document CHEMBL1201862, “PubChem BioAssay data set” (2004)
Activity calls are given as the source filed them.

Assays:
[1] = HepG2 cell cytotoxicity, dose response, cytotoxicity control for Shn3 inhibitor project, CellTiter-Glo, cherry-picked (AID 624134); type: functional, cell-based
[2] = molecular target: T1, Hexokinase-1 (Homo sapiens, UniProt P19367); assay: HK1 enzyme inhibition by HKDC1 hits, SAR follow-up, selectivity assay for HKDC1 inhibitor project, biochemical, set 2, resazurin fluorescence coupled readout (AID 588356); type: functional
T1 sequence (P19367 whole entry): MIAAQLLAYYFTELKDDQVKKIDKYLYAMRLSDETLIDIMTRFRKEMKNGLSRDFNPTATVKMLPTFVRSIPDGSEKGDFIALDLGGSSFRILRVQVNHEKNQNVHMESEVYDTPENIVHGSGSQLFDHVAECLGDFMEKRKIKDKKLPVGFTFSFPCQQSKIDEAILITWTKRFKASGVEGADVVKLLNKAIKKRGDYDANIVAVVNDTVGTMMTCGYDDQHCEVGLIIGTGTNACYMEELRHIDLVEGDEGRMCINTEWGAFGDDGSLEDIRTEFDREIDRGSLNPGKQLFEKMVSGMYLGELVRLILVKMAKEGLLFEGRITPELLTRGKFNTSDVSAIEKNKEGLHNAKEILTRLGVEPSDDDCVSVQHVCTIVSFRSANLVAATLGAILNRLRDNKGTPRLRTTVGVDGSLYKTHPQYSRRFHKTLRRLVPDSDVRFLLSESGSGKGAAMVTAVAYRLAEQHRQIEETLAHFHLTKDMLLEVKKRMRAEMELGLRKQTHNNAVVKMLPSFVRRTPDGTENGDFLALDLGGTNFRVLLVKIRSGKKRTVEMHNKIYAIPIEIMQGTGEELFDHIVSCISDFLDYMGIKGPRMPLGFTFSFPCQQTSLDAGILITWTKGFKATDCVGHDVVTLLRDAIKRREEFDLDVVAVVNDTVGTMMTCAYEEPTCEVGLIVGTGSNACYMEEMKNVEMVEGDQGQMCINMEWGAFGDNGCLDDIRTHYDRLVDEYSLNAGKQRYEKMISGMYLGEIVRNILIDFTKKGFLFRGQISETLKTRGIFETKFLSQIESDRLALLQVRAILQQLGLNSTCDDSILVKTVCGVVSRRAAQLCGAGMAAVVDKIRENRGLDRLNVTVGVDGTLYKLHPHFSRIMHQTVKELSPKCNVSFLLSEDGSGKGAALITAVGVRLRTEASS

[3] = molecular target: T2, Hexokinase HKDC1 (Homo sapiens, UniProt Q2TB90); assay: HKDC1 hexokinase inhibitors, SAR follow-up, biochemical, set 2 (AID 588355); type: functional
T2 sequence (Q2TB90 whole entry): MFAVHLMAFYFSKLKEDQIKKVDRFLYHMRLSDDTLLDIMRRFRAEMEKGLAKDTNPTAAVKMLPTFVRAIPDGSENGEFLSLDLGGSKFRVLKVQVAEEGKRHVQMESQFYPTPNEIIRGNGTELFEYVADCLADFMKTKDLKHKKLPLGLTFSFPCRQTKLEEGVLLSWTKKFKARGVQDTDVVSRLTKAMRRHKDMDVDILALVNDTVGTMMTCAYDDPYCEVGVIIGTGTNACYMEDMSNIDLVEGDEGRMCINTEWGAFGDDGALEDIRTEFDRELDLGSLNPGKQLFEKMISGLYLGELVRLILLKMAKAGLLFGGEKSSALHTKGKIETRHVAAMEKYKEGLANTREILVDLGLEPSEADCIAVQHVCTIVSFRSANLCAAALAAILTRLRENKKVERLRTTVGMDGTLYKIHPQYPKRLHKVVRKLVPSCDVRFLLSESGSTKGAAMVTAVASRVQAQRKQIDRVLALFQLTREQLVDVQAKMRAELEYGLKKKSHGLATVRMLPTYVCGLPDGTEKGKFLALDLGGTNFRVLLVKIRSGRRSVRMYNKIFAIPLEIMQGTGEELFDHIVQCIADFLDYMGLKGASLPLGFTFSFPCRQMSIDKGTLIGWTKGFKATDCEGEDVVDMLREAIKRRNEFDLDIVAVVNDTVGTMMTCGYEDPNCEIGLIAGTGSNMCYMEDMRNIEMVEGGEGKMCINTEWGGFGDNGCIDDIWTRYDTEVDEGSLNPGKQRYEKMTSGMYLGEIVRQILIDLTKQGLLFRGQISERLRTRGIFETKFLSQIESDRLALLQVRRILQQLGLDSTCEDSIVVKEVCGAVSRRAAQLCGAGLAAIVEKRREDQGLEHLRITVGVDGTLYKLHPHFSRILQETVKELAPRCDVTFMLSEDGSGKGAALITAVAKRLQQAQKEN

Structure (SMILES)	AC50 [1]	IC50 [2]	IC50 [3]
CCCCC(=O)NC(c1ccc(Cl)cc1)c1ccc2cccnc2c1O (stereo not drawn)	1.71 µM (active)		
CCc1ccc2c(c1)C(NC(C)=O)C(=O)N2CCN1CCOCC1 (stereo not drawn)		> 80 µM (inactive)	7.56 µM (active)
